Among the data in patent US20190389843A1, “PYRROLE mTORC INHIBITORS AND USES THEREOF” (Navitor Pharmaceuticals, Inc., priority 2016, published 2019) are IC50 values, retold here.

What all share (format): cell-based
For test [1], the system named is pS6K1 in MCF7 (measure of mTORC1 activity). Briefly: AlphaLISA Ultra pS6K1 assay. The note with it: Homo sapiens, MCF7, 2 h, MCF-7 cells, 2 hours compound incubation. The gist of the method: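 MCF7 cells, refreshed medium 2 h, treated with compound 2 h at 0.5% DMSO final, then lysed. Phospho-S6K1 in lysates detected by AlphaLISA Ultra (acceptor beads 2 h, donor beads 2 h), read as Alpha signal on a multimode reader.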

The test system of test [2] is Glucose uptake in MCF-7 cells. Briefly: Radioactive glucose uptake in MCF-7 cells. The note with it: Homo sapiens, MCF7, 3H-2DG uptake, 20 mins. How it is done:
Example 157: Radioactive Glucose Uptake in MCF-7 Cells
Assay Protocol • 1. Seed approximately 12,000 MCF-7 cells cultured without insulin per well in 96-well plates (BIOCOAT, #356690) and let the cells sit in hood for 30 min. (Cell culture medium: DMEM+10% FBS). • 2. Put the cell culture plates in TC incubator (5% CO2, 37° C.) and incubate overnight. • 3. Take out the cell plates and wash with prewarmed KRH buffer (37° C.) three times using BioTek plate washer. (KRH buffer preparation: 136 mM NaCl, 4.7 mM KCl, 1.25 mM MgCl2, 1.2 mM CaCl2, 20 mM HEPES, 0.1 mg/ml sodium pyruvate, 0.1% BSA, pH 7.4). • 4. Compound preparation and treatment: • a) Add 12 ul compound stock in 100% DMSO to the first column of Echo LDV plate • b) Serially dilute the compound solution in 100% DMSO (4 uL+8 uL DMSO) using Bravo for 9 doses • c) Dispense 350 nL compounds using Echo to the working plate • d) i) Without compound preincubation condition, dispense 116 uL KRH buffer containing tritiated 2-deoxy-D-glucose (3H-2DG) and 2-deoxy-D-glucose (2DG) to the working plate and mix. • ii. With compound preincubation condition, dispense 110 uL KRH buffer only to the working plates and mix • e) Keep the compound working plate at 37° C. incubator until use • 5. Discard the KRH buffer (cells were kept in KRH buffer for 10-15 min before 2-DG addition) and transfer 100 uL compound working solution out to the cell culture plate using Bravo. Incubate for 20 mins at 37° C. (2DG final at 0.2 mM, 3H-2DG at 10 uCi/mL). • 6. Add prewarmed 50 uL KRH buffer (37° C.) containing 60 mM cold 2DG to the wells to stop the 2DG uptake using Multidrop combi • 7. Wash the cells with prewarmed PBS three times using BioTek plate washer • 8. Add 50 uL lysis buffer (0.1 M NaOH) into the assay plate to lyse the cells using Bravo and shake at 800 rpm for 30 min. • 9. Mix and transfer 20 uL lysate to a new white plate (Corning, #3610) and add 200 uL MicroScint-20 using Bravo • 10. Shake the plate at 1000 rpm for 30 min and count in a MicroBeta plate reader.

Test [3] relates to pAKT in MCF7 (measure of mTORC2 activity). Briefly: AlphaLISA Ultra pAKT assay. The note with it: Homo sapiens, MCF7, 2 h, MCF-7 cells, 2 hours compound incubation. An outline of the steps: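 MCF7 cells, 16,000-20,000 per well, treated with compound for 2 h at 0.5% final DMSO, then lysed. Phospho-AKT, as a readout of mTORC2 activity, measured by AlphaLISA Ultra with acceptor beads and then donor beads, 2 h each.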

Take `Cc1c(CN2CCN(c3ccccc3C#N)CC2)cc(C(=O)N2CCN(c3ccc(F)cn3)CC2)n1C` [Example I-63]: the IC50 in test [1] was 10 to 1000 nM; in test [2] it was 10 to 1000 nM; in test [3], > 300 nM.

With `Cc1c(CN2CCN(c3ccccc3Cl)CC2)cc(C(=O)N2CCN(c3ccc(F)cn3)CC2)n1C` [Example I-72], the half-inhibitory concentration (IC50) in test [1] is 10 to 1000 nM; in test [2] it was 10 to 1000 nM; in test [3], > 300 nM.

`Cc1c(CN2CCN(c3ccccc3Cl)CC2)cc(C(=O)N2CCn3c(cc4ccccc43)C2)n1C` [Example I-76, (4-((4-(2-chlorophenyl)piperazin-1-yl)methyl)-1,5-dimethyl-1H-pyrrol-2-yl)(3,4-dihydropyrazino[1,2-a]indol-2(1H)-yl)methanone]: the concentration for half-maximal inhibition (IC50) in test [1] was 1000 to 3000 nM; in test [2] it was > 3000 nM; in test [3], > 5000 nM.

Consider `COCCn1cc(CN2CCN(c3ccccc3Cl)CC2)cc1C(=O)N1CCN(c2ccc(F)cc2)CC1` [Example I-140], for which the figures for the IC50 in test [1] and in test [3] were 1000 to 3000 nM and > 10000 nM, respectively.

As to `COCCn1cc(CN2CCN(c3ccccc3Cl)CC2)cc1C(=O)N1CCN(c2ccccc2F)CC1` [Example I-141], the IC50 was 3000 to 10000 nM in test [1] and > 10000 nM in test [3].

`O=C(c1cc(CN2CCN(c3ccccc3Cl)CC2)cn1CCO)N1CCN(c2ccccc2)CC1` [Example I-142]: the IC50 in test [1] was 1000 to 3000 nM; in test [3], > 3000 nM.

Turning to `CCn1cc(CN2CCN(c3ccccc3Cl)CC2)cc1C(=O)N1CCN(c2ccccc2)CC1` [Example I-143], the IC50 in test [1] is 10 to 1000 nM; in test [3] it was > 3000 nM.

Take `Cn1cc(CN2CCN(c3ccccc3Cl)CC2)cc1C(=O)N1CCN(c2ccccc2)CC1` [Example I-144]: the results for the IC50 in test [1] and in test [3] were 1000 to 3000 nM and > 3000 nM, respectively.

With `COCCCn1cc(CN2CCN(c3ccccc3Cl)CC2)cc1C(=O)N1CCN(c2ccccc2)CC1` [Example I-145], the half-inhibitory concentration (IC50) in test [1] was 3000 to 10000 nM; in test [3], > 10000 nM.

With `CCCCn1cc(CN2CCN(c3ccccc3Cl)CC2)cc1C(=O)N1CCN(c2ccccc2)CC1` [Example I-146], the IC50 is 3000 to 10000 nM in test [1] and > 10000 nM in test [3].

For the compound `O=C(c1cc(CN2CCN(c3ccccc3Cl)CC2)cn1CCCOC1CCCCO1)N1CCN(c2ccccc2)CC1` (centres unmarked) [Example I-147], the IC50 was 3000 to 10000 nM in test [1] and > 10000 nM in test [3].

Take `CC(=O)OCCn1cc(CN2CCN(c3ccccc3Cl)CC2)cc1C(=O)N1CCN(c2ccccc2)CC1` [Example I-148]: the IC50 in test [1] is 1000 to 3000 nM; in test [3], > 10000 nM.

Regarding `COCCn1cc(CN2CCN(c3ccccc3)CC2)cc1C(=O)N1CCN(c2ccccc2C#N)CC1` [Example I-149], the results for the 50% inhibitory concentration (IC50) in test [1] and in test [3] were 3000 to 10000 nM and > 10000 nM, respectively.

As to `COCCn1cc(CN2CCN(c3ccccc3C#N)CC2)cc1C(=O)N1CCN(c2ccccc2OC)CC1` [Example I-150], the IC50 in test [1] is 3000 to 10000 nM; in test [3] it was > 10000 nM.

For `COCCn1cc(CN2CCN(c3ccccc3C#N)CC2)cc1C(=O)N1CCN(c2ccccc2C#N)CC1` [Example I-151], the IC50 was 1000 to 3000 nM in test [1] and > 10000 nM in test [3].

With `COCCn1cc(CN2CCN(c3ccccc3Cl)CC2)cc1C(=O)N1CCN(c2ccccc2)CC1` [Example I-152], the IC50 in test [1] is 1000 to 3000 nM; in test [3] it was > 10000 nM.
